Test results reported in patent US20250297233A1, “GENETICALLY ENCODED SYSTEMS FOR GENERATING OXYGEN IN LIVING EUKARYOTIC CELLS” (The General Hospital Corporation, priority 2022, published 2025).
Read-outs that look alike come from different tables or passages of the source.

How the values were obtained:
[1] = molecular target: sodium iodide symporter (NIS) (Rattus norvegicus, UniProt Q63008); conditions: read-out: Km of NIS transport; Xenopus oocytes (Eskandari 1997); cited from earlier work
NdCld [2] = conditions: human digitonin-permeabilized HeLa cell extract expressing NdCld, initial rates of oxygen evolution
Procedure: HeLa cells were pelleted at 800×g for 3 min, washed with PBS, pelleted again, and then resuspended in assay buffer (125 mM KCl, 2 mM K2HPO4, 1 mM MgCl2, 2 0 mM HEPES pH 7.2, 5 mM glutamate, 5 mM malate, and 0.01% digitonin) at a concentration of 5×10^6 cells/ml. Oxygen production was measured using a FireSting optical oxygen meter connected to a sensor vial. One ml of cell solution (5×10^6 cells) was used for each measurement. Measurements were performed under ambient air conditions with stirring of the cell solution. […] The initial rates were determined from the resulting oxygen traces using up to 20 seconds of the linear portion of the trace via the ICEKAT web server (Olp, 2020). The means of 3 replicate rates were plotted against the chlorite concentrations to estimate the KM.
We next characterized the activity of this protein in human cell extracts. […] Doses spanning 10 uM to 1 mM were used, as previous studies have shown that higher chlorite concentrations lead to inactivation of the enzyme (Hofbauer 2014). We monitored oxygen evolution using an optical probe in a well-stirred, air saturated cuvette.

HeLa cells [3] = conditions: read-out: concentration giving 50% decrease in viability; HeLa cells (GFP), treated for 3 days, FIG. 3A
Procedure: Cell counts and viability were assessed after 3 days of growth using a Vi-Cell BLU Cell Viability Analyzer. Shown is the mean+/−s.d. of triplicate measurements.
HeLa cells were trypsinized, counted, and prepared at 10^5 cells/ml in normal growth media. […] Cells were seeded in 24-well plates, with triplicate wells for each condition. 500 ul of each 2× chlorite/media preparation was first added to the plate. 500 ul of cell suspension (5×10^4 cells) was then added to each well. The plate was gently mixed, and cells were grown for 3 days in a 37° C./5% CO2 incubator. After 3 days, cells were washed briefly with 500 ul of PBS, trypsinized with 250 ul TrypLE Express, and resuspended with 750 ul of normal growth media to 1 ml total volume. In wells containing a majority of visibly dead, floating cells, cells were resuspended by vigorously pipetting up and down rather than by trypsinization. 200 ul of each cell suspension was then quantified using a Vi-Cell BLU Cell Viability Analyzer (Beckman Coulter).

HeLa cells [4] = assay: Seahorse oxygen and oxygen consumption rate measurement in intact cells; assay type: cell-based, human; conditions: 1% ambient oxygen
NdCld [5] = conditions: NdCld in E. coli extracts (Maixner 2008); cited from earlier work
yeast = conditions: read-out: dose required to achieve 50% growth inhibition; yeast (Kwolek-Mirek 2011); cited from earlier work
NdCld [6] = conditions: purified bacterial expressed NdCld (Kostan 2010; Hofbauer 2014); cited from earlier work

NdCld, sequence (as listed by the source): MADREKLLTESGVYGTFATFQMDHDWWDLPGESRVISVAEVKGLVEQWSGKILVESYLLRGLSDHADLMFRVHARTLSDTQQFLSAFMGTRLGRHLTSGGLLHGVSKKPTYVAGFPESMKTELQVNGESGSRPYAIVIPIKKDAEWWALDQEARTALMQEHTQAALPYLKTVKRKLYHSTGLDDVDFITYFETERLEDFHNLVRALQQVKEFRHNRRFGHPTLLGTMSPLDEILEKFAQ
sodium iodide symporter (NIS), sequence (Q63008 whole entry): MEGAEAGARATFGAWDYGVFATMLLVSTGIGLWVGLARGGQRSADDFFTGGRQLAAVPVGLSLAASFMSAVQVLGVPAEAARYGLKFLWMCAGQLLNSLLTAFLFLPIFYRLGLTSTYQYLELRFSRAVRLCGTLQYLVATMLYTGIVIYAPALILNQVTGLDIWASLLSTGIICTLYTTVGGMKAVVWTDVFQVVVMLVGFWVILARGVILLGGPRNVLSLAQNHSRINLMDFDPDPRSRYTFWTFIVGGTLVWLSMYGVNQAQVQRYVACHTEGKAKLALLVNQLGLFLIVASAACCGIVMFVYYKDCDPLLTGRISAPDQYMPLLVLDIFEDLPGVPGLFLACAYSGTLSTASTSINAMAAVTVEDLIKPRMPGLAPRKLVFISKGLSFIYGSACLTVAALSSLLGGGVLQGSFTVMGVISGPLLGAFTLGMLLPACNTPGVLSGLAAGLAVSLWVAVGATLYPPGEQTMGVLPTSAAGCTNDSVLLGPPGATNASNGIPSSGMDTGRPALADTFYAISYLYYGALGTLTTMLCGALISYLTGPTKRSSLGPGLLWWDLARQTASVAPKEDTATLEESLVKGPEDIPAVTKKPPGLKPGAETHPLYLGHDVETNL

Compound | Km [1] | Vmax (NdCld [2]) | Km (NdCld [2]; read-out: Km for chlorite) | IC50 (HeLa cells [3]) | oxygen generation (decline in apparent OCR) (HeLa cells [4]; HeLa cells co-expressing NdCld and NIS, piericidin+antimycin, dose response beginning with 1 mM chlorite) | oxygen evolution in intact cells (HeLa cells [4]; HeLa cells expressing FLAG-NdCld+NIS (not mCherry), 500 uM or 1 mM chlorite) | Km (NdCld [5]) | IC50 (yeast) | Km (NdCld [6])
[O-][Cl+2]([O-])O [chlorate] | 277 µM |  |  |  |  |  |  |  | 
sodium chlorite |  | 0.37 umoles/second/100,000 cells | 560 µM | ~2000 µM | robust oxygen production | observed oxygen evolution | 15800 µM | 4000 µM | 58 to 69 µM
